{"source": "patent US20100297225A1", "about": "“SUSTAINED-RELEASE PHARMACEUTICAL FORMULATION CONTAINING AN ANTIMUSCARINIC AGENT AND A WETTING AGENT AS WELL AS A PROCESS FOR THE PREPARATION THEREOF” (PHARMATHEN S.A., priority 2007, published 2010)", "key": {"[1]": {"experiment": "X-RD analysis of crystalline form after storage", "assay_type": "physicochemical", "conditions": "3 months storage, normal and accelerated conditions (40°C and 75% RH)", "experimental": "As shown in FIG. 1 by the X-RD analysis Tolterodine Tartrate is in crystalline form and all the recorded characteristic broad peaks (approximate 20 values=12.55, 16.40, 20.00, 21.20, 22.75, 23.80, 25.65, 27.45, 34.60 and 37.60) were unchanged after 3 months storage in both normal and accelerated conditions (40° C. and 75% RH). The crystal properties remain also unchanged after three months in the same conditions when the mixture is incorporated in a pharmaceutical composition with other excipients."}, "[2]": {"experiment": "Flowability and compressibility (Carr's Index)", "assay_type": "physicochemical", "description": "The pharmaceutical composition is characterized by excellent pharmacotechnical properties, such as homogeneity, flowability and compressibility."}}, "note": "Structures can show the parent of a compound that is named as a salt."}
{"compound": "Cc1ccc(O)c([C@H](CCN(C(C)C)C(C)C)c2ccccc2)c1", "note": "[Tolterodine Tartrate, (R)—N,N-diisopropyl-3-(2-hydroxy-5-methylphenyl)-3-phenylpropylamine]", "values": [{"measurement": "X-RD characteristic peaks of crystalline form after storage", "setting": "[1]", "result": "unchanged"}, {"measurement": "mean Carr's Index", "setting": "[2]", "result": 38.7, "unit": "%"}]}
